From patent US11584742B2 (MASARYKOVA UNIVERZITA, priority 2018, dated 2023) come the findings set out here.

Molecules are shown by their SMILES.

The target in the test is T1, MRE11 (Homo sapiens, UniProt P49959).
T1 sequence (P49959 1-708): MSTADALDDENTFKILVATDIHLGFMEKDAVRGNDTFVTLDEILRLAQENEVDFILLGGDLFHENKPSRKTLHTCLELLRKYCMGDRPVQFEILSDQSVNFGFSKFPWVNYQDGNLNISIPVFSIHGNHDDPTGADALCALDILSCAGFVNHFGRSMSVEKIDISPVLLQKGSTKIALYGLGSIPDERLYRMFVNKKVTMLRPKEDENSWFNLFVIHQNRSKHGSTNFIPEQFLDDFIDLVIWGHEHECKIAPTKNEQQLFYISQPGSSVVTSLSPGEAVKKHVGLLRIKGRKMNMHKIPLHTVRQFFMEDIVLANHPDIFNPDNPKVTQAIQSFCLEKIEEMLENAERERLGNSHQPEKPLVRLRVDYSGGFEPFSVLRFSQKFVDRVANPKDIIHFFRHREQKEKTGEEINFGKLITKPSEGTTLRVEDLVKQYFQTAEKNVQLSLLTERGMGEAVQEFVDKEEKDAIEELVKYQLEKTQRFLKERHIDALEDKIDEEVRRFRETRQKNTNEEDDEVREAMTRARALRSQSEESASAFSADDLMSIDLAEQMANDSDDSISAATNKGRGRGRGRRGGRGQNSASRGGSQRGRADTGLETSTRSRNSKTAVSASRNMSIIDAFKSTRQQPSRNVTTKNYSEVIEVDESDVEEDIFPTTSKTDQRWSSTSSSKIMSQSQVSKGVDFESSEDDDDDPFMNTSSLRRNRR
Put plainly: HTS nuclease assay (cleavage of CY5/BBQ-quenched 5' overhang DNA substrate). Type of test: biochemical. Conditions: in vitro HTS nuclease assay; 18 nM MRE11, 40 nM DNA substrate; analysis at t=4 h. Here is the method: DNA Substrate Preparation
The DNA substrate is prepared by mixing the oligonucleotides listed below in a 1:1 ratio to reach a final concentration of 6 μM in a buffer containing 50 mM Tris pH 7.5, 100 mM NaCl and 8 mM MgCl2.
This substrate is a 5′ overhang, which is a preferred substrate of MRE11. […] The fluorescence increases upon substrate cleavage by MRE11, when separation of the two labels occur.
The conditions of the assay are as follows:
Total reaction volume: 5 μL
DNA substrate concentration in the reaction: 40 nM
Inhibitor concentration range tested: 7 nM-50 μM
Each plate contains a series of high and low signal control wells, where no compound is added:
High signal: MRE11+DNA substrate
Low signal: DNA substrate only
These are used during data evaluation.
Two extra assay controls:
1) To check whether unwinding of DNA by the compounds alone occurs.
The DNA substrate [CY5+BBQ(650)] is mixed with the compounds with no protein present.
The CY5 single stranded oligo is mixed with the compounds with no protein present.
The layout of the plates is created by the in-house software (CZ-Openscreen Prague) and this information is transferred to the robotic HTS station.
The reaction is started by the addition of DNA and the reaction time is counted from that moment, including a 15 min delay. Ten timepoints are measured:
The assay data analysis was performed at t=4 h. This corresponds to the time when the reaction is close to its maximum.
The data analysis was performed using the in-house software to obtain IC50 for each compound.

By IC50 is commonly meant the concentration that gives 50% inhibition.

`N#C/C(=C\c1cc(Br)c(O)c(Br)c1)C(=O)Nc1nc(-c2ncccc2F)cs1` [Preparative Example 251, (E)-2-cyano-3-(3,5-dibromo-4-hydroxyphenyl)-N-(4-(3-fluoropyridin-2-yl)thiazol-2-yl)acrylamide]: the IC50 was under 2 µM.
As for `N#C/C(=C\c1ccc(O)c(Br)c1)C(=O)Nc1nc(-c2ccccc2)cs1` [Preparative Example 202, (E)-3-(3-bromo-4-hydroxyphenyl)-2-cyano-N-(4-phenylthiazol-2-yl)acrylamide], the half-inhibitory concentration (IC50) is 2 to 10 µM.
`N#C/C(=C\c1cc(Br)c(O)c(Br)c1)C(=O)Nc1nc(-c2ncc(N3CCOCC3)cc2F)cs1` [Preparative Example 271, (E)-2-cyano-3-(3,5-dibromo-4-hydroxyphenyl)-N-(4-(3-fluoro-5-morpholinopyridin-2-yl)thiazol-2-yl)acrylamide] had a half-maximal inhibitory concentration (IC50) of under 2 µM.
`N#C/C(=C\c1ccc(O)c(O)c1)C(=O)Nc1nc(C(=O)c2ccccc2)cs1` [Preparative Example 261, (E)-N-(4-benzoylthiazol-2-yl)-2-cyano-3-(3,4-dihydroxyphenyl)acrylamide]: the IC50 was under 2 µM.
Under `N#C/C(=C\c1cc(O)c(O)c(C#N)c1)C(=O)Nc1nc(-c2ccccc2)cs1` [Preparative Example 269, (E)-2-cyano-3-(3-cyano-4,5-dihydroxyphenyl)-N-(4-phenylthiazol-2-yl)acrylamide] stands under 2 µM.
Under `N#C/C(=C\c1cc(O)c(O)c(Br)c1)C(=O)Nc1nc(-c2ccccc2)cs1` [Preparative Example 266, (E)-3-(3-bromo-4,5-dihydroxyphenyl)-2-cyano-N-(4-phenylthiazol-2-yl)acrylamide] stands under 2 µM; under `Cc1cc(/C=C(\C#N)C(=O)Nc2nc(-c3ncccc3F)cs2)cc(C)c1O` [Preparative Example 250, (E)-2-cyano-N-(4-(3-fluoropyridin-2-yl)thiazol-2-yl)-3-(4-hydroxy-3,5-dimethylphenyl)acrylamide], 10 to 90 µM; under `N#C/C(=C\c1cc(Br)c(O)c(Br)c1)C(=O)Nc1nc(Cc2ccccc2)cs1` [Preparative Example 276, (E)-N-(4-benzylthiazol-2-yl)-2-cyano-3-(3,5-dibromo-4-hydroxyphenyl)acrylamide], 2 to 10 µM.
`Cc1cc(/C=C(\C#N)C(=O)Nc2nc(-c3ccccn3)cs2)cc(C)c1O` [Preparative Example 248, (E)-2-cyano-3-(4-hydroxy-3,5-dimethylphenyl)-N-(4-(pyridin-2-yl)thiazol-2-yl)acrylamide] registered an IC50 of 10 to 90 µM.
In the case of `N#C/C(=C\c1ccc(O)c(O)c1)C(=O)Nc1nc(-c2ccccn2)c(-c2cnccn2)s1` [Preparative Example 263, (E)-2-cyano-3-(3,4-dihydroxyphenyl)-N-(5-(pyrazin-2-yl)-4-(pyridin-2-yl)thiazol-2-yl)acrylamide], the IC50 was under 2 µM.
Take `N#C/C(=C\c1ccc(O)c(CO)c1)C(=O)Nc1nc(-c2ccccc2)cs1` [Preparative Example 260, (E)-2-cyano-3-(4-hydroxy-3-(hydroxymethyl)phenyl)-N-(4-phenylthiazol-2-yl)acrylamide]: the IC50 lay in the range of 2 to 10 µM.
Under `N#C/C(=C\c1ccc(O)c(O)c1)C(=O)Nc1nc(Cc2ccccc2)cs1` [Preparative Example 273, (E)-N-(4-benzylthiazol-2-yl)-2-cyano-3-(3,4-dihydroxyphenyl)acrylamide] stands under 2 µM; under `N#C/C(=C\c1ccc(O)c(O)c1)C(=O)Nc1ncc(-c2cnccn2)s1` [Preparative Example 262, (E)-2-cyano-3-(3,4-dihydroxyphenyl)-N-(5-(pyrazin-2-yl)thiazol-2-yl)acrylamide], 10 to 90 µM; under `N#C/C(=C\c1ccc(O)c(O)c1)C(=O)Nc1nc(-c2cccc(N3CCOCC3)n2)cs1` [Preparative Example 264, (E)-2-cyano-3-(3,4-dihydroxyphenyl)-N-(4-(6-morpholinopyridin-2-yl)thiazol-2-yl)acrylamide], 2 to 10 µM.
The same measure for `N#C/C(=C\c1cc(O)c(O)c(F)c1)C(=O)Nc1nc(-c2ccccc2)cs1` [Preparative Example 267, (E)-2-cyano-3-(3-fluoro-4,5-dihydroxyphenyl)-N-(4-phenylthiazol-2-yl)acrylamide]: under 2 µM.
Under `N#C/C(=C\c1cc(Br)c(O)c(Br)c1)C(=O)Nc1nc(-c2ccccn2)cs1` [Preparative Example 249, (E)-2-cyano-3-(3,5-dibromo-4-hydroxyphenyl)-N-(4-(pyridin-2-yl)thiazol-2-yl)acrylamide] stands under 2 µM.
With `N#C/C(=C\c1cc(O)c(O)c(Br)c1)C(=O)Nc1nc(-c2ncc(N3CCOCC3)cc2F)cs1` [Preparative Example 272, (E)-3-(3-bromo-4,5-dihydroxyphenyl)-2-cyano-N-(4-(3-fluoro-5-morpholinopyridin-2-yl)thiazol-2-yl)acrylamide], the concentration for half-maximal inhibition (IC50) was under 2 µM.
For the compound `N#C/C(=C\c1ccc(O)c(C(=O)O)c1)C(=O)Nc1nc(-c2ccccc2)cs1` [Preparative Example 254, (E)-5-(2-cyano-3-oxo-3-((4-phenylthiazol-2-yl)amino)prop-1-en-1-yl)-2-hydroxybenzoic acid], the 50% inhibitory concentration (IC50) lay within 10 to 90 µM.
Under `N#C/C(=C\c1ccc(O)cc1Br)C(=O)Nc1nc(-c2ccccc2)cs1` [Preparative Example 256, (E)-3-(2-bromo-4-hydroxyphenyl)-2-cyano-N-(4-phenylthiazol-2-yl)acrylamide] stands 10 to 90 µM.
Under `CC(C)(C)c1ccc(-c2csc(NC(=O)/C(C#N)=C/c3cc(Cl)c(O)c(Cl)c3)n2)cc1` [Preparative Example 224, (E)-N-(4-(4-(tert-butyl)phenyl)thiazol-2-yl)-2-cyano-3-(3,5-dichloro-4-hydroxyphenyl)acrylamide] stands 2 to 10 µM.
The same measure for `N#C/C(=C\c1ccc(O)c(O)c1)C(=O)Nc1nc(-c2ncc(N3CCOCC3)cc2F)cs1` [Preparative Example 270, (E)-2-cyano-3-(3,4-dihydroxyphenyl)-N-(4-(3-fluoro-5-morpholinopyridin-2-yl)thiazol-2-yl)acrylamide]: under 2 µM; for `N#C/C(=C\c1ccc(O)c(C(N)=O)c1)C(=O)Nc1nc(-c2ccccc2)cs1` [Preparative Example 255, (E)-5-(2-cyano-3-oxo-3-((4-phenylthiazol-2-yl)amino)prop-1-en-1-yl)-2-hydroxybenzamide]: 10 to 90 µM.
For `N#C/C(=C\c1ccc(O)c(O)c1)C(=O)Nc1nc(-c2ccc(N3CCOCC3)nc2)cs1` [Preparative Example 265, (E)-2-cyano-3-(3,4-dihydroxyphenyl)-N-(4-(6-morpholinopyridin-3-yl)thiazol-2-yl)acrylamide], the IC50 was in the range of 2 to 10 µM.
Under `COC(=O)c1ccc(/C=C(\C#N)C(=O)Nc2nc(-c3ccccc3)cs2)cc1O` [Preparative Example 258, Methyl (E)-4-(2-cyano-3-oxo-3-((4-phenylthiazol-2-yl)amino)prop-1-en-1-yl)-2-hydroxybenzoate] stands 2 to 10 µM.
The same measure for `COc1cc(/C=C(\C#N)C(=O)Nc2nc(-c3ccccc3)cs2)cc(C#N)c1O` [Preparative Example 268, (E)-2-cyano-3-(3-cyano-4-hydroxy-5-methoxyphenyl)-N-(4-phenylthiazol-2-yl)acrylamide]: 10 to 90 µM; for `N#C/C(=C\c1cc(Cl)c(O)c(Cl)c1)C(=O)Nc1nc(-c2ncccc2F)cs1` [Preparative Example 252, (E)-2-cyano-3-(3,5-dichloro-4-hydroxyphenyl)-N-(4-(3-fluoropyridin-2-yl)thiazol-2-yl)acrylamide]: under 2 µM.
The same measure for `N#C/C(=C\c1cc(Cl)c(O)c(Cl)c1)C(=O)Nc1nc(Cc2ccccc2)cs1` [Preparative Example 275, (E)-N-(4-benzylthiazol-2-yl)-2-cyano-3-(3,5-dichloro-4-hydroxyphenyl)acrylamide]: 10 to 90 µM.
In the case of `N#C/C(=C\c1ccc(C(=O)O)c(O)c1)C(=O)Nc1nc(-c2ccccc2)cs1` [Preparative Example 259, (E)-4-(2-cyano-3-oxo-3-((4-phenylthiazol-2-yl)amino)prop-1-en-1-yl)-2-hydroxybenzoic acid], the IC50 fell in the range of 2 to 10 µM.
